Calls of active or inactive are those of the source. The calls are words filed in the database; no cut-off is given here.
What was measured:
Mus musculus [1] = assay: In vivo activity tested against C3H mice bearing panc-03 murine tumor measured as activity rating at 561 mg/kg (po); type: functional
Mus musculus [2] = assay: In vivo activity tested against C3H mice bearing panc-03 murine tumor measured as log Kill value was based on tumors that grew at 1010 mg/kg (po); type: functional, organism-based; parameters: dose 1010 mg/kg
Mus musculus [3] = assay: In vivo activity tested against C3H mice bearing panc-03 murine tumor measured as log Kill value was based on tumors that grew at 561 mg/kg (po); None; type: functional, organism-based; parameters: dose 561 mg/kg
Mus musculus [4] = assay: In vivo activity tested against C3H mice bearing panc-03 murine tumor measured as % treated/control calculated at 1010 mg/kg (po); type: functional
Mus musculus [5] = assay: In vivo activity tested against C3H mice bearing panc-03 murine tumor measured as body weight loss at 1010 mg/kg (po); type: functional
Mus musculus [6] = assay: In vivo activity tested against C3H mice bearing panc-03 murine tumor measured as body weight loss at 561 mg/kg (po); type: functional
Mus musculus [7] = assay: In vivo activity tested against C3H mice bearing panc-03 murine tumor measured as % treated/control calculated at 561 mg/kg (po); type: functional
Mus musculus [8] = assay: In vivo activity tested against C3H mice bearing panc-03 murine tumor at a dose of 330 mg/kg, measured as activity rating at 330 mg/kg iv dose; type: functional
Mus musculus [9] = assay: In vivo activity tested against C3H mice bearing panc-03 murine tumor at a dose of 330mg/kg, measured as % treated/control; type: functional
Mus musculus [10] = assay: In vivo activity tested against C3H mice bearing panc-03 murine tumor measured as log Kill value was based on tumors that grew at 144 mg/kg (po); type: functional, organism-based; parameters: dose 144 mg/kg
Mus musculus [11] = assay: In vivo activity tested against C3H mice bearing mammary adenocarcinoma -17/ADR tumor measured as % treated/control calculated at 216 mg/kg (po); type: functional
Mus musculus [12] = assay: In vivo activity tested against C3H mice bearing mammary adenocarcinoma -17/ADR tumor measured as body weight loss at 216 mg/kg (po); type: functional
Mus musculus [13] = assay: In vivo activity tested against C3H mice bearing panc-03 murine tumor measured as body weight loss at 144 mg/kg (po); type: functional
Mus musculus [14] = assay: In vivo activity tested against C3H mice bearing mammary adenocarcinoma -17/ADR tumor measured as log Kill value was based on tumors that grew at 216 mg/kg (po); type: functional, organism-based; parameters: dose 216 mg/kg
Mus musculus [15] = assay: In vivo activity tested against C3H mice bearing panc-03 murine tumor measured as % treated/control calculated at 144 mg/kg (po); type: functional
Mus musculus [16] = assay: In vivo activity tested against C3H mice bearing panc-03 murine tumor measured as body weight loss at 1320 mg/kg (po); type: functional
Mus musculus [17] = assay: In vivo activity tested against C3H mice bearing panc-03 murine tumor measured as % treated/control calculated at 1320 mg/kg (po); type: functional
Mus musculus [18] = assay: In vivo activity tested against C3H mice bearing panc-03 murine tumor measured as log Kill value was based on tumors that grew at 1320 mg/kg (po); type: functional, organism-based; parameters: dose 1320 mg/kg
Mus musculus [19] = assay: In vivo activity tested against C3H mice bearing colon adenocarcinoma -38(colon-38) tumor measured as % treated/control calculated at 2686 mg/kg (po); type: functional
Mus musculus [20] = assay: In vivo activity tested against C3H mice bearing colon adenocarcinoma -38(colon-38) tumor measured as body weight loss at 2686 mg/kg (po); type: functional
Mus musculus [21] = assay: In vivo activity tested against C3H mice bearing colon adenocarcinoma -38(colon-38) tumor measured as log Kill value was based on tumors that grew at 2686 mg/kg (po); type: functional, organism-based; parameters: dose 2686 mg/kg
Mus musculus [22] = assay: In vivo activity tested against C3H mice bearing colon adenocarcinoma -38(colon-38) tumor measured as activity rating at 2686 mg/kg (po); type: functional
Mus musculus [23] = assay: In vivo activity tested against C3H mice bearing panc-03 murine tumor measured as log Kill value was based on tumors that grew at 1085 mg/kg (po); type: functional, organism-based; parameters: dose 1085 mg/kg
Mus musculus [24] = assay: In vivo activity tested against C3H mice bearing panc-03 murine tumor measured as activity rating at 1085 mg/kg (po); type: functional
Mus musculus [25] = assay: In vivo activity tested against C3H mice bearing panc-03 murine tumor measured as body weight loss at 1085 mg/kg (po); type: functional
Mus musculus [26] = assay: In vivo activity tested against C3H mice bearing panc-03 murine tumor, measured as cures at 1085 mg/kg (po); 3/5 cures; type: functional
Mus musculus [27] = assay: In vivo activity tested against C3H mice bearing panc-03 murine tumor measured as % treated/control calculated at 1085 mg/kg (po); type: functional

CC(Oc1ccc(Oc2cnc3c(Cl)cccc3n2)cc1)C(=O)O (configuration not stated)
Activity rating (Mus musculus [1]): <0.7
Log kill (Mus musculus [2]): 0.27
Log kill (Mus musculus [3]): inactive
T/C (Mus musculus [4]): 59%
Body weight loss (Mus musculus [5]): -2%
Body weight loss (Mus musculus [6]): 2%
T/C (Mus musculus [7]): >100%

CC(Nc1ccc(Oc2cnc3ccc(Cl)cc3n2)cc1)C(=O)O (configuration not stated)
Activity rating (Mus musculus [8]): >2.8
T/C (Mus musculus [9]): 100%

CC(Oc1ccc(Oc2cnc3ccc(N=[N+]=[N-])cc3n2)cc1)C(=O)O (configuration not stated)
Log kill (Mus musculus [10]): 2
T/C (Mus musculus [11]): 30%
Body weight loss (Mus musculus [12]): 4.3%
Body weight loss (Mus musculus [13]): 2.9%
Log kill (Mus musculus [14]): 1
T/C (Mus musculus [15]): 17%

CC(Oc1ccc(Oc2cnc3ccc(Cl)cc3n2)cc1)C(N)=O (configuration not stated)
Body weight loss (Mus musculus [16]): -3.6%
T/C (Mus musculus [17]): 7.3
Log kill (Mus musculus [18]): 1.9

CCOC(=O)C(C)Oc1ccc(Oc2cnc3cc(Cl)ccc3n2)cc1 (configuration not stated) [QUIZALOFOP ETHYL ESTER]
T/C (Mus musculus [19]): 61%
Body weight loss (Mus musculus [20]): 0%
Log kill (Mus musculus [21]): 0.42
Activity rating (Mus musculus [22]): <0.7

CC(Oc1ccc(Oc2cnc3ccc(F)cc3n2)cc1)C(=O)O (configuration not stated)
Log kill (Mus musculus [23]): 3.7
Activity rating (Mus musculus [24]): >2.8
Body weight loss (Mus musculus [25]): -13%
Cures (Mus musculus [26]): 3
T/C (Mus musculus [27]): 0%
